Results as given in US20210059961A1, “CANNABINOID DOSING REGIME FOR ACNE” (priority 2018, published 2021).

Legend:
cardiac inflammation = conditions: injected into rats; cited from earlier work
[1] = tested on: immortalized human sebocytes; conditions: cited from earlier work
[2] = Open-label study in patients with acne vulgaris: study drug plasma levels; assay type: in vivo, human
Source text: Eligible subjects were enrolled within 14 days after the Screening Visit. Assessments for safety (CBC, chemistry, urinalysis, and vital signs) were obtained at the Baseline Visit (Day 1). If the Screening and Baseline Visits were not conducted on the same day, a UPT for WOCBP, lesion counts on the face, an Investigator's Global Assessment (IGA) for facial acne and a UDS were repeated. Baseline photographs of the face and a blood sample for Baseline study drug plasma levels were obtained. […] Cutaneous tolerability assessments were conducted at one hour after the first application. […]
Safety was the primary outcome measure. The safety outcomes were measured through assessment of: • AEs monitored from time of consent through the end of study. • Cutaneous tolerability (erythema, scaling, dryness, burning/stinging, and irritant/allergic contact dermatitis) collected at Baseline, Day 14, Day 28, and Day 35 and graded using the following scale: 0, None; 1, Slight; 2, Moderate; 3, Severe. • Vital signs (temperature, blood pressure, and pulse) obtained at Baseline, Day 14, Day 28 and Day 35. • Complete blood count (CBC), chemistry, and urinalysis at Baseline and at Day 28. Blood levels of study drug will be measured at Baseline and prior to dosing (trough level) on Day 14, Day 28, and Day 35. […]

[3] = Healthy volunteer study of single and multiple-dose BTX 1503 5% Solution (BTX.2017.001): pharmacokinetics, safety; assay type: in vivo, human; conditions: for mean CBD trough level Day 15: multiple dose phase
Procedure: The pharmacokinetics (PK) of single and multiple-dose administration of BTX 1503 5% Solution were evaluated in a healthy volunteer study. In this study, BTX 1503 5% Solution was applied as a single dose either QD or BID (12 hrs apart) on Day 1 followed by a 6-day washout period, then either QD or BID for 14 days (Day 8 to Day 21). Five subjects were enrolled in each cohort and doses were escalated for each sequential cohort enrolled with the following doses. • Cohort 1: 37.5 mg CBD/day or 0.066 mg/cm^2/day^a applied as 1 mL of BTX 1503 5% (w/w) QD • Cohort 2: 75 mg CBD/day or 0.133 mg/cm^2/day applied as 1 mL BTX 1503 5% (w/w) BID • Cohort 3: 112.5 mg CBD/day or 0.199 mg/cm^2/day applied as 3 mL of BTX 1503 5% (w/w) QD • Cohort 4: 225 mg CBD/day or 0.398 mg/cm^2/day applied as 3 mL of BTX 1503 5% (w/w) BID Area of application assumed to be 565 cm^2 (i.e., on the face), which is reported by the European Union Scientific Committee on Consumer Safety (SCCS) to be half of the surface area for a female head (SCCS Notes of Guidance for the Testing of Cosmetic Substances and Their Safety Evaluation, 8th edition, 2012; Table 2).
Blood samples were taken for PK assessments on Day 1 (Baseline) at pre-dose (15 mins before dosing), 30, 60 and 90 mins and 2, 2.5, 3, 4, 6, 8 and 12 hrs, and 24 hrs after the first single dose. For participants that received BID dosing, samples were also taken at 30, 60 and 90 mins and 2, 2.5, 3, 4, 6, and 8 hrs after the second dose on Day 1.
During the multiple dose (14-day) phase, trough levels were obtained before the morning application on Day 15. On Day 21, blood samples were taken for PK assessments at pre-dose (15 mins before dosing), 30, 60 and 90 mins and 2, 2.5, 3, 4, 6, 8 and 12 hrs, 24 hrs and 48 hrs after the morning dose. For participants that received BID dosing, samples were also be taken at 30, 60 and 90 mins and 2, 2.5, 3, 4, 6, and 8 hrs after the second dose on Day 21. A sample was obtained on Day 23, 48 hrs after the last morning dose. […]

[4] = Skin permeation of CBD, Franz-type diffusion cell; assay type: in vitro ADME
Procedure: Dermatomed skin from a single donor was mounted in a Franz-type diffusion cell (0.55 cm^2 receptor fluid exposure surface area) and dosed with 5 ul of 2-[3-methyl-6-(1-methylethenyl)-2-cyclohexen-1-yl]-5-pentyl-1,3-benzenediol (CBD), BTX 1503 5% Solution, formulated in an mixture of a volatile solvent (hexylmethyldisiloxane/polymethylsiloxane—93% w/w), and residual solvent (arlamol E—2% w/w) at a concentration of 5.0% (w/w; 35.5 mg/ml). Following dosing, receptor phase samples were collected at 4, 10, 24 and 48 hours; after which the study was terminated.
The residual formulation was removed by tape stripping and the epidermis and dermis separated by blunt dissection. The levels of CBD in the epidermis, dermis, and receptor fluid samples were then analyzed using a bioanalytical method with LC-MS/MS detection.

[5] = molecular target: human vanilloid receptor type 1 (VR1) (Homo sapiens, UniProt Q8NER1); conditions: in vitro; cited from earlier work
airway obstruction = conditions: intravenous, sensitized guinea-pigs; cited from earlier work
anandamide = conditions: in vitro; cited from earlier work
[6] = 5 ul of 5.0% w/w solution, 48-hour exposure

Chain of human vanilloid receptor type 1 (VR1) (Q8NER1 whole entry): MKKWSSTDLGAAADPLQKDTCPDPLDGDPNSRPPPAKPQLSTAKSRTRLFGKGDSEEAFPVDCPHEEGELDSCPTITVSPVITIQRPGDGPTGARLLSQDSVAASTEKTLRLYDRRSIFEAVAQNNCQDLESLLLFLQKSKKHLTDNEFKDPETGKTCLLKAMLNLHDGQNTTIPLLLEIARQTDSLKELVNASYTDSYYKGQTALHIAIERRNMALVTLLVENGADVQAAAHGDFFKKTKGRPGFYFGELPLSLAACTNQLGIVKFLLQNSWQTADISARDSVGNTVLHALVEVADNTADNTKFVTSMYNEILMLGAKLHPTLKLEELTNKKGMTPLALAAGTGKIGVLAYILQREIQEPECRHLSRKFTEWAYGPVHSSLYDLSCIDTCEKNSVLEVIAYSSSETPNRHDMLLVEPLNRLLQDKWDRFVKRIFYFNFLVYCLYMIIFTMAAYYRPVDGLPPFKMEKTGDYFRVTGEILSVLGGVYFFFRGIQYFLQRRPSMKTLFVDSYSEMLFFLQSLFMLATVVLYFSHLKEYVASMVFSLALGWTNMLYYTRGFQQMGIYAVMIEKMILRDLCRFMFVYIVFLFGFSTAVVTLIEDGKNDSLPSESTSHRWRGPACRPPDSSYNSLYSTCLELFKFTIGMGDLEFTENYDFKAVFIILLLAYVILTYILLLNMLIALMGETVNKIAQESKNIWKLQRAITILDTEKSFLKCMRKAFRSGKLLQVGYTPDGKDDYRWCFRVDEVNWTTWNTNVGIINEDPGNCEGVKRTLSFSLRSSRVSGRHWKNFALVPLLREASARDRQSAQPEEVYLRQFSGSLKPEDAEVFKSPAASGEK

SMILES: C=C(C)C1CCC(C)=CC1c1c(O)cc(CCCCC)cc1O (stereo not drawn) [CBD, 2-[3-methyl-6-(1-methylethenyl)-2-cyclohexen-1-yl]-5-pentyl-1,3-benzenediol]
- effect on cardiac inflammation (cardiac inflammation): attenuated cardiac inflammation
- effects on immortalized human sebocytes [1]: lipostatic, anti-proliferative, and anti-inflammatory effects
- subjects with circulating levels of CBD ([2]; Day 35 visit, 7 days after final dose): Nine
- study drug (CBD) plasma levels ([2]; throughout the study, 225 mg CBD per day): low
- mean pre-dose CBD level Day 21 ([3]; Cohort 1: 1 mL QD): 0.545 ng/mL
- mean pre-dose CBD level Day 21 ([3]; Cohort 2: 1 mL BID): 0.770 ng/mL
- mean CBD trough level Day 15 ([3]; Cohort 2: 1 mL BID): 0.781 ng/mL
- mean pre-dose CBD level Day 21 ([3]; Cohort 3: 3 mL QD): 0.715 ng/mL
- mean CBD trough level Day 15 ([3]; Cohort 3: 3 mL QD): 0.525 ng/mL
- CBD trough level Day 15 of the outlier subject ([3]; Cohort 4, one subject): 5.99 ng/mL
- mean pre-dose CBD level Day 21 ([3]; Cohort 4: 3 mL BID): 1.553 ng/mL
- mean CBD trough level Day 15 ([3]; Cohort 4: 3 mL BID, all subjects): 2.11 ng/mL
- mean CBD trough level Day 15 without outlier subject ([3]; Cohort 4: 3 mL BID, one outlier excluded): 1.16 ng/mL
- Cmax Day 21 relative to Day 1 Cmax, mean ([3]; accumulation after 14 days dosing): 1.92 times
- CBD in the receptor phase (skin permeation) [4, 6]: < 278 ng/cm^2
- CBD in the receptor phase (skin permeation), percent of applied dose [4, 6]: less than 0.081%
- dermal deposition of CBD ([4]; 48-hour period): 4.54 % of the applied dose
- dermis concentration ([4]; 48-hour period): 8,408 ng/cm^2
- dermis concentration per tissue ([4]; 48-hour period): 1,933 ng/g of tissue
- dermis concentration, volume equivalent ([4]; 48-hour period): ~1,933 ng/mL
- epidermal deposition of CBD ([4]; 48-hour period): 13.17 % of the applied dose
- effect on human vanilloid receptor type 1 (VR1) [5]: stimulate
- effect on airway obstruction (airway obstruction): reduced airway obstruction
- effect on anandamide (anandamide): inhibit
